Assay results as given in patent US11040028B2, “Penicinotam derivative, preparation method and use thereof” (OCEAN UNIVERSITY OF CHINA, priority 2017, dated 2021).

Assays:
Type in all cases: cell-based
[1] = test system: human dermal fibroblasts CCC-ESF-1; experiment: Anti-fibrosis activity test: inhibition of proliferation of human dermal fibroblasts CCC-ESF-1 (CCK-8); details: Fibroblast
Method in brief: (§1)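 Read-out: absorbance at 450 nm after 2 h with CCK-8, following 48 h of compound exposure of adhered cells (2×10^4 cells/mL, 24 h attachment, 37° C, 5% CO2). Proliferation inhibition was taken relative to the blank control, and IC50 values were calculated from it.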

[2] = test system: mouse macrophages (RAW264.7); experiment: Lipopolysaccharide-induced NO secretion in macrophages (Griess); details: Mus musculus, RAW264.7, 24 h, RAW264.7, LPS 1 μg/ml, a/b isomers given as first/second symbol, read-out: IC50 (μM), inhibition of lipopolysaccharide-induced NO secretion in macrophages
Method in brief: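 Absorbance at 548 nm after Griess reagent addition to culture supernatant gave NO content; inhibition rate was derived relative to blank control. Cells were mouse RAW264.7 macrophages exposed to compounds and 1 μg/ml LPS for 24 hours.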

[3] = test system: human lung fibroblasts HFL1; experiment: Anti-fibrosis activity test: inhibition of proliferation of human lung fibroblasts HFL1 (CCK-8); details: Homo sapiens, HFL1, 48 h
Method in brief: as §1

[4] = test system: BHK-21 cells; experiment: Anti-fibrosis activity test: inhibition of BHK-21 cell proliferation (CCK-8); details: Mesocricetus auratus, BHK-21, 48 h
Method in brief: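 Proliferation inhibition was read as CCK-8 absorbance at 450 nm (2-hour development) relative to untreated blank, with IC50 fitted from the curve. Before that, adhered cells (2×10^4 cells/mL, 24 hours) had 48 hours' treatment at several concentrations, in triplicate, at 37° C/5% CO2; pirfenidone was the reference.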

[5] = test system: human fibrosarcoma cells HT-1080; experiment: Anti-fibrosis activity test: inhibition of proliferation of human fibrosarcoma cells HT-1080 (CCK-8); details: Homo sapiens, HT-1080, 48 h
Method in brief: as §1

[6] = test system: human hepatic stellate cells LX-2; experiment: Anti-fibrosis activity test: inhibition of proliferation of human hepatic stellate cells LX-2 (CCK-8); details: Homo sapiens, 48 h
Method in brief: as §1

[7] = test system: NF-κB; experiment: Immunological activity test: inhibition of NF-κB activity; details: initial concentration of 30 μM; a/b isomers given as first/second symbol; read-out: IC50 (μM), inhibitory activity against NF-κB
Method in brief: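 NF-κB inhibition was tested at an initial 30 μM compound concentration, with parthenolide as positive control, and IC50 values were determined from follow-up analysis.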

[8] = test system: cardiac fibroblast RAT-iCell-C002; experiment: Anti-fibrosis activity test: inhibition of proliferation of cardiac fibroblast RAT-iCell-C002 (CCK-8); details: Cardiac fibroblast, 48 h
Method in brief: as §1

[9] = test system: human embryonic lung fibroblast IMR-90; experiment: Anti-fibrosis activity test: inhibition of proliferation of human embryonic lung fibroblast IMR-90 (CCK-8)
Method in brief: as §1

[10] = human dermal fibroblasts CCC-ESF-1, CCK-8, 48 hours
[11] = human lung fibroblasts HFL1, CCK-8, 48 hours
[12] = CCK-8, 48 hours after administration
[13] = human fibrosarcoma cells HT-1080, CCK-8, 48 hours
[14] = human hepatic stellate cells LX-2, CCK-8, 48 hours
[15] = cardiac fibroblast RAT-iCell-C002, CCK-8, 48 hours
[16] = human embryonic lung fibroblast IMR-90, CCK-8, 48 hours

IC50 [2] [µM] | IC50 [5, 13] [mM] | IC50 [7] [µM] | IC50 ([5]; HT-1080 cells, 48 h, CCK-8) [mM] | Structure (SMILES) | IC50 [1, 10] [mM] | IC50 [3, 11] [mM] | IC50 [4, 12] [mM] | IC50 [6, 14] [mM] | IC50 [8, 15] [mM] | IC50 [9, 16] [mM] | IC50 ([1]; Homo sapiens, CCC-ESF-1 cells, 48 h, CCK-8) [mM] | IC50 ([3]; HFL1 cells, 48 h, CCK-8) [mM] | IC50 ([4]; 48 h, CCK-8) [mM] | IC50 ([6]; LX-2, 48 h, LX-2 cells, CCK-8) [mM] | IC50 ([8]; RAT-iCell-C002 cells, CCK-8) [mM] | IC50 ([9]; Homo sapiens, IMR-90 cells, 48 h, CCK-8) [mM]
1 to 10 | – | 0.1 to 1 | 0.05 to 5 | O=C1c2c(n(Cc3ccccc3[N+](=O)[O-])c3ccccc3c2=O)-c2cccn21 [Compound 668a, 4-(2-Nitrobenzyl)-9H-pyrrolizino[1,2-b]quinoline-9,10(4H)-dione] | – | – | – | – | – | – | 0.05 to 5 | 0.05 to 5 | 0.05 to 5 | 0.05 to 5 | 0.05 to 5 | 0.05 to 5
1 to 10 | 0.05 to 5 | 1 to 10 | – | O=C1c2c(n(Cc3cccc(Cl)c3F)c3ccccc3c2=O)-c2cccn21 [Compound 582a, 4-(3-Chloro-2-fluorobenzyl)-9H-pyrrolizino[1,2-b]quinoline-9,10(4H)-dione] | 0.05 to 5 | 0.05 to 5 | 0.05 to 5 | 0.05 to 5 | 0.05 to 5 | 0.05 to 5 | – | – | – | – | – | –
1 to 10 | 0.05 to 5 | 1 to 10 | – | O=C1c2c(nc3ccccc3c2OCc2cccc(Cl)c2)-c2cccn21 [Compound 596b, 9-((3-chlorobenzyl)oxy)-10H-pyrrolizino[1,2-b]quinolin-10-one] | 0.05 to 5 | 0.05 to 5 | 0.05 to 5 | 0.05 to 5 | 0.05 to 5 | 0.05 to 5 | – | – | – | – | – | –
1 to 10 | 0.05 to 5 | 1 to 10 | – | COc1cccc(Cn2c3c(c(=O)c4ccccc42)C(=O)n2cccc2-3)c1 [Compound 610a, 4-(3-Methoxybenzyl)-9H-pyrrolizino[1,2-b]quinoline-9,10(4H)-dione] | 0.05 to 5 | 0.05 to 5 | 0.05 to 5 | 0.05 to 5 | 0.05 to 5 | 0.05 to 5 | – | – | – | – | – | –
1 to 10 | 0.05 to 5 | 1 to 10 | – | CN(C)CCCOc1c2c(nc3ccccc13)-c1cccn1C2=O [Compound 658b, 9-(3-(dimethylamino)propoxy)-10H-pyrrolizino[1,2-b]quinolin-10-one] | 0.05 to 5 | 0.05 to 5 | 0.05 to 5 | 0.05 to 5 | 0.05 to 5 | 0.05 to 5 | – | – | – | – | – | –
1 to 10 | < 0.05 | 0.1 to 1 | – | O=C1c2c(nc3ccccc3c2OCc2ccc(F)c(F)c2F)-c2cccn21 [Compound 584b, 9-((2,3,4-trifluorobenzyl)oxy)-10H-pyrrolizino[1,2-b]quinolin-10-one] | 0.05 to 5 | 0.05 to 5 | 0.05 to 5 | 0.05 to 5 | 0.05 to 5 | 5 to 20 | – | – | – | – | – | –
1 to 10 | 0.05 to 5 | 1 to 10 | – | O=C1c2c(nc3ccccc3c2OCc2ccc(OC(F)(F)F)cc2)-c2cccn21 [Compound 592b, 9-((4-(trifluoromethoxy)benzyl)oxy)-10H-pyrrolizino[1,2-b]quinolin-10-one] | 0.05 to 5 | 0.05 to 5 | 0.05 to 5 | 0.05 to 5 | 0.05 to 5 | 0.05 to 5 | – | – | – | – | – | –
0.1 to 1 | 0.05 to 5 | 1 to 10 | – | O=C1c2c(n(CCCCN3CCOCC3)c3ccccc3c2=O)-c2cccn21 [Compound 664a, 4-(4-Morpholinobutyl)-9H-pyrrolizino[1,2-b]quinoline-9,10(4H)-dione] | 0.05 to 5 | 0.05 to 5 | 0.05 to 5 | 0.05 to 5 | 0.05 to 5 | 0.05 to 5 | – | – | – | – | – | –

Further lines, the compound ahead of its results:

Structure (SMILES) | IC50 [2] [µM] | IC50 [5, 13] [mM] | IC50 [7] [µM] | IC50 ([5]; HT-1080 cells, 48 h, CCK-8) [mM] | IC50 [1, 10] [mM] | IC50 [3, 11] [mM] | IC50 [4, 12] [mM] | IC50 [6, 14] [mM] | IC50 [8, 15] [mM] | IC50 [9, 16] [mM] | IC50 ([1]; Homo sapiens, CCC-ESF-1 cells, 48 h, CCK-8) [mM] | IC50 ([3]; HFL1 cells, 48 h, CCK-8) [mM] | IC50 ([4]; 48 h, CCK-8) [mM] | IC50 ([6]; LX-2, 48 h, LX-2 cells, CCK-8) [mM] | IC50 ([8]; RAT-iCell-C002 cells, CCK-8) [mM] | IC50 ([9]; Homo sapiens, IMR-90 cells, 48 h, CCK-8) [mM]
O=C1c2c(n(Cc3ccccc3I)c3ccccc3c2=O)-c2cccn21 [Compound 576a, 4-(2-Iodobenzyl)-9H-pyrrolizino[1,2-b]quinoline-9,10(4H)-dione] | 1 to 10 | 0.05 to 5 | 1 to 10 | – | 0.05 to 5 | 0.05 to 5 | 0.05 to 5 | 0.05 to 5 | 0.05 to 5 | 0.05 to 5 | – | – | – | – | – | –
N#Cc1cccc2nc3c(c(O)c12)C(=O)n1cccc1-3 [Compound 476b, 9-hydroxy-10-oxo-10H-pyrrolizino[1,2-b]quinoline-8-carbonitrile] | 1 to 10 | 0.05 to 5 | 10 to 50 | – | 0.05 to 5 | 0.05 to 5 | 0.05 to 5 | 0.05 to 5 | 0.05 to 5 | 0.05 to 5 | – | – | – | – | – | –
O=C1c2c([nH]c3cc(N4CCNCC4)ccc3c2=O)-c2cccn21 [Compound 319a, 6-(piperazin-1-yl)-9H-pyrrolizino[1,2-b]quinoline-9,10(4H)-dione] | 1 to 10 | 0.05 to 5 | 1 to 10 | – | < 0.05 | 0.05 to 5 | 0.05 to 5 | 0.05 to 5 | 0.05 to 5 | 0.05 to 5 | – | – | – | – | – | –
O=C1c2c(n(CCc3ccccc3)c3ccc(F)cc3c2=O)-c2cccn21 [Compound 141a, 7-Fluoro-4-phenethyl-9H-pyrrolizino[1,2-b]quinoline-9,10(4H)-dione] | 1 to 10 | 0.05 to 5 | 1 to 10 | – | < 0.05 | 0.05 to 5 | 0.05 to 5 | 0.05 to 5 | 0.05 to 5 | 0.05 to 5 | – | – | – | – | – | –
O=C1c2c(nc3ccccc3c2OCc2ccc(F)cc2Cl)-c2cccn21 [Compound 572b, 9-((2-chloro-4-fluorobenzyl)oxy)-10H-pyrrolizino[1,2-b]quinolin-10-one] | 1 to 10 | 0.05 to 5 | 1 to 10 | – | 0.05 to 5 | 0.05 to 5 | 0.05 to 5 | 0.05 to 5 | 0.05 to 5 | 0.05 to 5 | – | – | – | – | – | –
O=C1c2c(nc3c(O)cccc3c2O)-c2cccn21 [Compound 445b, 5,9-dihydroxy-10H-pyrrolizino[1,2-b]quinolin-10-one] | 1 to 10 | 0.05 to 5 | 1 to 10 | – | 0.05 to 5 | 0.05 to 5 | 0.05 to 5 | 0.05 to 5 | 0.05 to 5 | 0.05 to 5 | – | – | – | – | – | –
O=C1c2c([nH]c3cc(F)ccc3c2=O)-c2cccn21 [Compound 488a, 6-Fluoro-9H-pyrrolizino[1,2-b]quinoline-9,10(4H)-dione] | 10 to 50 | 0.05 to 5 | 1 to 10 | – | 0.05 to 5 | 0.05 to 5 | 0.05 to 5 | < 0.05 | 0.05 to 5 | 0.05 to 5 | – | – | – | – | – | –
N#Cc1ccc2[nH]c3c(c(=O)c2c1)C(=O)n1cccc1-3 [Compound 222a, 9,10-Dioxo-4,10-dihydro-9H-pyrrolizino[1,2-b]quinoline-7-carbonitrile] | 1 to 10 | 0.05 to 5 | 1 to 10 | – | 0.05 to 5 | 0.05 to 5 | 0.05 to 5 | 0.05 to 5 | 0.05 to 5 | 0.05 to 5 | – | – | – | – | – | –
O=C1c2c(nc3ccc(F)cc3c2OCCc2ccccc2)-c2cccn21 [Compound 141b, 7-Fluoro-9-phenethoxy-10H-pyrrolizino[1,2-b]quinolin-10-one] | 1 to 10 | 0.05 to 5 | 0.1 to 1 | – | 5 to 20 | 0.05 to 5 | 0.05 to 5 | 0.05 to 5 | 0.05 to 5 | 0.05 to 5 | – | – | – | – | – | –
